Measurements: patent US6780414B2 (priority 1998, dated 2004)

Target: T1, BFT (Bacteroides fragilis, UniProt P54355)
T1 sequence (P54355 26-405): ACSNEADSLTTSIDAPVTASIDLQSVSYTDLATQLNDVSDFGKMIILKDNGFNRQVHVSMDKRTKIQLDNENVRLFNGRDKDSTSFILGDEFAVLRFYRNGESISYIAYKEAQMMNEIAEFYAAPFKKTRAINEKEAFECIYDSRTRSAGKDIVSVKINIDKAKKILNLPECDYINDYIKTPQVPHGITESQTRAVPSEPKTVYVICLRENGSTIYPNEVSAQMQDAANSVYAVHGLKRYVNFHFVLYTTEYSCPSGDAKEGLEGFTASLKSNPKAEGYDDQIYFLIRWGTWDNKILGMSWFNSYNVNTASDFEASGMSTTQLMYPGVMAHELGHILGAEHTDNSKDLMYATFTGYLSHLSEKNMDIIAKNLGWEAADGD
Type: cell-based, Bacterioides fragilis

Question: What does the source list for `NCCCCCN` [cadaverine, 1,5-diaminopentane]?
Answer: Effect of Cadaverine, enterotoxicity in Ussing chambers: completely; ΔIsc + cadaverine: 21.5
